We go through one compound from patent US20230348401A1, “Inhibitors of Glucose-6-phosphate Dehydrogenase and Uses Thereof” (The Trustees of Princeton University, priority 2020, published 2023).

Molecules are shown by their SMILES.

For assay [1], the system named is HCT116 cells. In words: NADP/NADPH ratio and dUMP levels in HCT116 cells. To be noted: dose-response. It is filed as cell-based, human. The procedure: For analysis of intracellular metabolites by LC-MS, adherent cell lines were plated and grown to 80% confluency in 6-well plates. At the start of an experiment, the appropriate media was added to cells, which included isotope tracers and/or chemical inhibitors as described. Cells were incubated at 37° C. at 5% CO2 for 2 hours (unless otherwise noted). For all experiments involving small molecule agents, DMSO concentrations were <0.2%. After 2 hours, media was removed by aspiration and metabolome extraction was performed (without any wash steps) by the addition of 800 µL of ice cold solvent (40:40:20 acetonitrile:methanol:water + 0.5% formic acid). After a 1-minute incubation on ice, the extract was neutralized by the addition of NH4HCO3 (15% w/v). The samples were incubated at -20° C. for approximately 30 minutes, at which point the wells were scraped and the extract transferred to Eppendorf tubes and centrifuged (15 minutes, 16000 rpm, 4° C.). […]
Metabolites were analyzed using a quadrupole-orbitrap mass spectrometer (Q Exactive Plus, Thermo Fisher Scientific, Waltham, MA), coupled to hydrophilic interaction chromatography (HILIC) with LC separation on a XBridge BEH Amide column (Waters), or a stand-alone orbitrap (Thermo-Fisher Exactive) coupled to reversed-phase ion-pairing chromatography with LC separation on a HSS-T3 column (Waters). […]

Assay [2] deals with mouse neutrophils. In words: Neutrophil oxidative burst assay (mouse). To be noted: PMA, 50 µM. It is filed as cell-based. The procedure:
Murine neutrophils were isolated from 8-12-week old C56BL/6 mice. Mice were bred and maintained according to the University of Wisconsin Institutional Animal Care and Use Committee (Protocol No. M006219). Mice were euthanized by cervical dislocation, and bone marrow cells were harvested from femur and tibia within 30 minutes. Cell suspensions were passed through a 70-µm cell strainer. Neutrophils were prepared using a negative selection kit (EasySep Mouse Neutrophil Enrichment Kit, Stem Cell Technologies), following the manufacturer’s instructions. Cells were cultured in RPMI 1640 media supplemented with 10% heat-inactivated FBS, 100 U/ml penicillin, 100 µg/ml streptomycin, 5 mM HEPES, and 2 mM EDTA. To stimulate neutrophils, 100 nM phorbol 12-myristate 13-acetate (PMA) (Cayman Chemical) was added to the media; metabolites were extracted after 30 minutes of stimulation.
Suspended neutrophils were plated in culture wells pre-coated with CELL-TAK™ (Corning), spun at 200 × g for 1 minute with minimal acceleration/deceleration, and then incubated for 1 hour at 37° C. Murine neutrophils were plated at 2×10^5 cells/well in RPMI 1640 media without sodium bicarbonate. […] Oxidative burst was stimulated with PMA (100 nM, Cayman Chemical); oxygen consumption rate was measured using the XF-96e extracellular flux analyzer (Seahorse Bioscience).

Assay [3] deals with human neutrophils. Briefly: Neutrophil oxidative burst assay (human). It is filed as cell-based. To be noted: PMA, 50 µM. On the procedure:
Human neutrophils were isolated from 8 ml of blood collected from healthy donors following the protocol approved by the University of Wisconsin Institutional Review Board (Protocol No. 2019-1031-CP001). Neutrophils were purified using the MACSxpress Whole Blood Neutrophil Isolation Kit (Miltenyi Biotec 130-104-434) followed by erythrocyte depletion (Miltenyi Biotec 130-098-196) according to the manufacturer’s instructions.
Suspended neutrophils were plated in culture wells pre-coated with CELL-TAK™ (Corning), spun at 200 × g for 1 minute with minimal acceleration/deceleration, and then incubated for 1 hour at 37° C. Murine neutrophils were plated at 2×10^5 cells/well in RPMI 1640 media without sodium bicarbonate. Human neutrophils were plated at 5×10^4 cells/well in RPMI 1640 media supplemented with 0.1% human serum albumin. Inhibitor (G6PDi-1, 50 µM) or vehicle control were added just prior to starting the assay. Mouse neutrophils were also treated with rotenone (0.5 µM, BioVision) + antimycin A (0.5 µM, BioVision) at t = 20 minutes. Oxidative burst was stimulated with PMA (100 nM, Cayman Chemical); oxygen consumption rate was measured using the XF-96e extracellular flux analyzer (Seahorse Bioscience).

The target of assay [4] is T1, G6PD (Homo sapiens, UniProt P11413). In words: Cellular thermal shift assay (CETSA) in HepG2 lysates. To be noted: up to 56° C. Also noted: endogenous in cells. It is filed as binding. On the procedure: Lysates from HepG2 cells at 75% confluence were isolated with 0.5% Triton in TBS (20 mM, Tris pH 7.4, 150 mM NaCl) for 30 min on ice, pre-cleared by centrifugation and used for thermal shift assay as described 49. Briefly, inhibitor or DMSO control was added to lysates at indicated concentration and incubated for 30 min on ice followed by 3 min heating at 47° C., 50° C., 53° C., and 56° C. in a thermal cycler. After heating, tubes were cooled at room temperature for 3 min and insoluble fraction removed by centrifugation at 17,000 g for 20 min. The soluble fraction was separated by SDS-PAGE, transferred to PVDF membrane, and immunoblotted using indicated antibodies at a dilution of 1:2000. Blots were developed by chemiluminescence and imaged using LI-COR C-DiGit Western Blot Scanner. Two independent experiments were performed. Signal intensity of proteins from immunoblots was quantified using Image Studio version 5.2 for C-DiGit Scanner, and bands were normalized to signal intensity of the 47° C. treated samples. Relative signal intensities were plotted as bar graph relative to the DMSO treated control.
Target sequence in this assay (P11413 whole entry): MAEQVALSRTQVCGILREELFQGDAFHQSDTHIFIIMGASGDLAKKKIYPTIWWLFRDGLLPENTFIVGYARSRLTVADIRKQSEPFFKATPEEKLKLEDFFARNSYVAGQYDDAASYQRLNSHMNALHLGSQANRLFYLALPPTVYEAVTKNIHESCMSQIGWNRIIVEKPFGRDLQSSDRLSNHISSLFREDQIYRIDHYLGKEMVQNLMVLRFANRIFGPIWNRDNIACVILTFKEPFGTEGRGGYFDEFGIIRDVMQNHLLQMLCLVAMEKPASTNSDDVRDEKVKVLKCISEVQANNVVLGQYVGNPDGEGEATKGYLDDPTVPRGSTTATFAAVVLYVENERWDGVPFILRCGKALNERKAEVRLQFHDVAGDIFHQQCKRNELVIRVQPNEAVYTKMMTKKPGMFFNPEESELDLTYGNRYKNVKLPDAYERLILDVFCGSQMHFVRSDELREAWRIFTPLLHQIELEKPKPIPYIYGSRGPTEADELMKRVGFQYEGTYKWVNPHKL

Assay [5] concerns the target T1, G6PD. Briefly: G6PD enzymatic activity by LC-MS (6-pg production). The assay is classed as biochemical. Also noted: Partially truncated human G6PD (residues 28-515, Uniprot ID P11413); His6 with thrombin cleavage site (N, cleaved yes); made in house; host or cells: Escherichia coli BL21(DE3)pLysS. To be noted: orthogonal LC-MS assay. The procedure:
Aliquots of reaction mixture were collected at indicated time points and rapidly quenched by diluting (1:5) into methanol precooled on dry ice. The mixtures were centrifuged at 13,000 rcf for 20 minutes at 4° C., and the resulting supernatants were diluted (1:20) into 40:40:20 methanol/ acetonitrile/ water and analyzed by LC-MS.
Target sequence in this assay (P11413 28-515): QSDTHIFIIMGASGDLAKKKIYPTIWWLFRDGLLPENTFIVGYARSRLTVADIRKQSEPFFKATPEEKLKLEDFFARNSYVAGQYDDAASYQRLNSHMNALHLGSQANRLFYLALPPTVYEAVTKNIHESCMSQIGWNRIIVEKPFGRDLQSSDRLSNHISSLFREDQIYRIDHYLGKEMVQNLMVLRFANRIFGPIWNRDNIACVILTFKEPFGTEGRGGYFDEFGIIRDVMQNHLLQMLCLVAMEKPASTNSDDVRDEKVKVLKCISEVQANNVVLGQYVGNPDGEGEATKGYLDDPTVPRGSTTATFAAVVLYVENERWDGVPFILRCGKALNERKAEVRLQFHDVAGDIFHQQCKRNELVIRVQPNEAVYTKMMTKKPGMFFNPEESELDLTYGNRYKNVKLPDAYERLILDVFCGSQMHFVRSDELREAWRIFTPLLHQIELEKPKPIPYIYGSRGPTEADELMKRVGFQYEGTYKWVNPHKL

`N#Cc1cc(Nc2ncc3c(n2)CCCCC3=O)cs1` [Compound 2, 4-([5-oxo-6H,7H,8H,9H-cyclohepta[d]pyrimidin-2-yl]amino)thiophene-2-carbonitrile]: in assay [1], the NADP/NADPH result is reported as “dose-dependent increases” and the dUMP result is on record as “dose-dependent increases”. Besides, the “oxidative burst (oxygen consumption rate)” value in assay [2] is listed as “decreased oxidative burst”. For the same compound, in assay [3], the “oxidative burst (oxygen consumption rate)” value is “decreased oxidative burst”. Also, the “thermal stabilization of G6PD” value in assay [4] is reported as “significant thermal stabilization of G6PD”. For the same compound, the “6-pg production by recombinant human G6PD” value in assay [5] was “demonstrated in vitro inhibition of G6PD activity”.
